Laboratory results reported in PubChem BioAssay AID1817 (Sanford-Burnham Center for Chemical Genomics, 2009).
Active and inactive are the calls of the source.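 The calls were made as follows: active = displacement of at least 50% at 20 µM, with a fluorescence ratio check between 0.3 and a set limit; inactive = the rest.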

Target: E3 ubiquitin-protein ligase SIAH1 (Homo sapiens) (UniProt Q8IUQ4)
Assay: blockers of Siah-1 interaction with plectin peptide – biochemical, fluorescence polarization, rhodamine-plectin, uHTS, primary screen (AID 1817)
Details: Siah-1 / rhodamine-plectin peptide fluorescence polarization

Sequence of E3 ubiquitin-protein ligase SIAH1 (Homo sapiens) (Q8IUQ4 whole entry, looked up): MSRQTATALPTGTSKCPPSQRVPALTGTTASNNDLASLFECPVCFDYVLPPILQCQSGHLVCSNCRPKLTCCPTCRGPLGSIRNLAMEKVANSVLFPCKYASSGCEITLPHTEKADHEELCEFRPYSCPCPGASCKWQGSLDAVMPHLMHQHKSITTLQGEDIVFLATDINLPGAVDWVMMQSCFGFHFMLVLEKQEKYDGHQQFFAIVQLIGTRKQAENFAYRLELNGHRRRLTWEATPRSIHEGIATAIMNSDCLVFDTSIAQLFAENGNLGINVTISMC

Compound	IC50
Cc1ccc(CNc2ccc(O)cc2)cc1	inactive
CCOc1ccccc1CNc1ccc(O)cc1	inactive
CCNc1ccc(C(=O)O)cc1N	inactive
COCCOC(=O)c1sc(=S)n(CCOC)c1N	8.07 µM
Cc1ccccc1-c1nc2c3ccccc3nc(=S)n2[nH]1	> 200 µM (inactive)
CC1CCCCC1NC(=O)CCS(=O)(=O)c1ccc2c(c1)NC(=O)CO2 (stereo unspecified)	> 200 µM (inactive)
COC(=O)c1cc(NC(=O)c2ccccc2)c(=O)oc1/C=C/Nc1ccc(Oc2ccccc2)cc1	> 200 µM (inactive)
N#C/C(=C\c1c(F)cccc1Cl)C(=O)NC1CC1	> 200 µM (inactive)
Cc1c(C(=O)O)sc2nc(CSc3ncc(C(F)(F)F)cc3Cl)[nH]c(=O)c12	> 200 µM (inactive)
C=C(C)Cn1c(N2CCN(CC)CC2)nc2c1c(=O)[nH]c(=O)n2C	> 200 µM (inactive)
Cc1cc(C)nc(N=Nc2c(O)n(Cc3ccc(Cl)cc3)c3ccccc23)n1	> 200 µM (inactive)
O=S(=O)(O)c1cc(O)c2c(O)c(N=Nc3cc(Cl)ccc3O)c(S(=O)(=O)O)cc2c1	5.13 µM
CC(C)COc1ccc(-c2nn(-c3ccccc3)cc2/C=C2/SC(=S)N(CC(=O)O)C2=O)cc1	> 200 µM (inactive)
CCC1=Nc2cc(C(=O)O)ccc2Sc2ccccc21	> 200 µM (inactive)
CCOC(=O)c1c(C)[nH]c2c1-c1ccccc1C(=O)C2=O	> 200 µM (inactive)
O=C(O)c1cc(Cl)c(Cl)cc1C(=O)Nc1cccc2cccnc12	> 200 µM (inactive)
CCC(C)[C@H](NC(=O)N1CCn2c1nc1ccccc12)C(=O)NCCc1ccc(OC)c(OC)c1 (stereo partly specified)	> 200 µM (inactive)
Cc1ccc(C(=O)NC2CC3CCCC(C2)N3C(=O)NC2CCCCC2)cc1 (stereo unspecified)	> 200 µM (inactive)
Nc1ccc(S(=O)(=O)Nc2ccc(S(N)(=O)=O)cc2)cc1	> 200 µM (inactive)
O=S(=O)(Nc1c(S(=O)(=O)c2ccccc2)c2nc3ccccc3nc2n1C1CCCCC1)c1ccccc1	> 200 µM (inactive)
Cc1cc2cc(CNC(=O)c3ccc(S(=O)(=O)N4CCCCC4)cc3)ccc2n1C	> 200 µM (inactive)
Cc1cc(C)c(C#N)c(Nc2ccccc2C)n1	> 200 µM (inactive)
CC1CCN(S(=O)(=O)c2nnc(NC(=O)c3cccc(Cl)c3)s2)CC1	> 200 µM (inactive)
O=C(Nc1ccc(S(=O)(=O)N2CCOCC2)cc1)c1ccc(=O)[nH]c1	20.5 µM

Compound	IC50
Cc1cc(C)n2ncc(C(=O)Nc3ccc4c(c3)OCO4)c2n1	> 200 µM (inactive)
CC(C)(C)c1ccc(C(CC(=O)O)NC(=O)Cc2ccc(F)cc2)cc1 (stereo unspecified)	25.6 µM
O=c1[nH]c2ccc(S(=O)(=O)N3CCCCC3)cc2s1	> 200 µM (inactive)
Cc1ccc(C(=O)COc2ccccc2C(=O)Nc2ccccc2)cc1	> 200 µM (inactive)
Cc1ccn2c(C(=O)CSc3ccc(Cl)cc3Cl)c(C)nc2c1	> 200 µM (inactive)
CCC(C)N1C(=O)/C(=C/c2c(NCCCOC(C)C)nc3c(C)cccn3c2=O)SC1=S (stereo unspecified)	> 200 µM (inactive)
COC(=O)C1C=C2c3cccc4[nH]cc(c34)CC2N(C)C1 (stereo unspecified)	inactive
CC1=C(C#N)c2nc(N)c(C#N)c(C)c2/C1=C\c1ccc(-c2ccccc2C(=O)O)o1	20.6 µM
Oc1ccc(N=Cc2sc3ccccc3c2Cl)cc1	inactive
CCCCn1c(NC(=O)c2ccco2)c(S(=O)(=O)c2ccc(C)cc2)c2nc3ccccc3nc21	> 200 µM (inactive)
O=c1ccc2c(-c3ccccc3)c3ccc(O)cc3oc-2c1	11.1 µM
N#CC1C=Cc2ccccc2N1C(=O)c1ccccc1 (stereo unspecified)	> 200 µM (inactive)
COCCCNc1c2c3c(cccc3[nH]c1=O)C(=O)c1ccccc1-2	> 200 µM (inactive)
C=CCn1c(NS(=O)(=O)c2ccccc2)c(S(=O)(=O)c2ccc(C)cc2)c2nc3ccccc3nc21	> 200 µM (inactive)
COc1cccc(CCC(=O)N(C)C2CCCN(Cc3ccccc3F)C2)c1 (stereo unspecified)	> 200 µM (inactive)
CCOC(=O)C1(C)C=C(Nc2ccc(O)cc2)C(=O)N1c1ccc(O)cc1 (stereo unspecified)	> 200 µM (inactive)
COc1ccc(C(C(=O)NCc2ccccc2)N(Cc2ccco2)C(=O)c2cnccn2)cc1 (stereo unspecified)	> 200 µM (inactive)
CC1=CC(C)(C)N2C(=O)C(=Nc3ccc(O)cc3)c3cccc1c32	inactive
NS(=O)(=O)c1ccc(NC(=O)c2cccc(N3C(=O)c4ccccc4C3=O)c2)cc1	inactive
CC1CCN(S(=O)(=O)c2ccc3c(c2)c(=O)c(C(=O)NCc2ccccc2Cl)cn3C)CC1	> 200 µM (inactive)
O=C(O)CCN1C(=O)/C(=C/c2cn(-c3ccccc3)nc2-c2cccs2)SC1=S	> 200 µM (inactive)
CCn1c(O)c(C=Nc2ccc(N3CCOCC3)cc2)c(=O)n(CC)c1=S	> 200 µM (inactive)
CCCCNc1nnc(Cc2ccc(Cl)cc2)c(=O)[nH]1	> 200 µM (inactive)
CCCCn1c(NS(=O)(=O)c2ccc(C)cc2)c(S(=O)(=O)c2ccccc2)c2nc3ccccc3nc21	> 200 µM (inactive)

Compound	IC50
COc1ccc(-c2cnnn2-c2ccc(N)cc2)cc1OC	> 200 µM (inactive)
Cc1ccc2c(c1)N(CC(=O)NCCc1ccc(Cl)cc1)C(=O)c1cccnc1O2	> 200 µM (inactive)
Cc1c(Cc2ccccc2)c(=O)oc2c(C)c(OCC(=O)N[C@@H](Cc3ccccc3)C(=O)O)ccc12	inactive
COc1ccc(CCNC(=O)CCC(=O)N2CCOc3ccc(C)cc32)cc1OC	> 200 µM (inactive)
O=C(Nc1cccc(Oc2ccc(C(=O)O)c(C(=O)O)c2)c1)c1ccc(-c2ccccc2)cc1	8.53 µM
CCOc1cc(/C=C(\C#N)C(=O)Nc2ccccc2C(=O)O)ccc1OC(=O)c1ccc(C)cc1	> 200 µM (inactive)
O=c1[nH]n(-c2ccc([N+](=O)[O-])cc2)c(=O)c2ccccc12	15.7 µM
O=C(Nc1ccccc1N1CCCCC1)c1ccc(-c2cccc(Cl)c2)o1	> 200 µM (inactive)
CC(NC(=O)Nc1ccc(O)cc1)(C(F)(F)F)C(F)(F)F	> 200 µM (inactive)
O=C(Cn1cnc2scc(-c3ccccc3)c2c1=O)NCc1ccco1	> 200 µM (inactive)
C[N+]1(CCNC(=O)/C=N/O)CCCCC1	> 200 µM (inactive)
S=c1[nH]nc(Cc2cccc3ccccc23)n1-c1ccccc1	> 200 µM (inactive)
Cc1ccc(S(=O)(=O)N2CCC(=O)N(C(COCc3cccc(C)c3)Cc3ccccc3)CC2)cc1 (stereo unspecified)	> 200 µM (inactive)
COC(=O)c1c(C(=O)OC)c2cccc3cc(-c4ccccc4)c4ccc1c4n32	inactive
COCCCn1c(N)c(C(=O)NCc2ccco2)c2nc3ccccc3nc21	> 200 µM (inactive)
Cc1ccc(NC(=O)CCC(=O)NNC(=O)c2ccccc2[N+](=O)[O-])c(C)c1	> 200 µM (inactive)
NS(=O)(=O)c1ccc(NS(=O)(=O)c2ccc(NC(=O)c3ccc(-c4ccccc4)cc3)cc2)cc1	1.56 µM
Cc1coc2c(C)c3oc(=O)c(CCC(=O)N[C@@H](C)C(=O)N[C@@H](Cc4ccccc4)C(=O)O)c(C)c3cc12	16.8 µM
O=C(CSc1ccc(Br)c2cccc(Cl)c12)Nc1ccc(S(=O)(=O)Nc2nccs2)cc1	> 200 µM (inactive)
CCCCn1c(NC(=O)c2ccc(Br)o2)c(C(=O)OCC)c2nc3ccccc3nc21	> 200 µM (inactive)
O=C(/C=C/c1ccco1)OCc1nnc(-c2ccccc2)o1	> 200 µM (inactive)
COc1cc(/C=C2/SC(=S)N(Cc3ccccc3)C2=O)cc(Cl)c1O	> 200 µM (inactive)
O=C(NCc1c(F)cccc1F)c1cc(COc2c(F)cccc2F)on1	> 200 µM (inactive)
CSc1n[nH]c(NCc2ccc(Cl)cc2)n1	> 200 µM (inactive)

Compound	IC50
COCCn1nnnc1C(c1cc2ccc(OC)cc2[nH]c1=O)N1CCc2ccccc2C1 (stereo unspecified)	> 200 µM (inactive)
N#Cc1c(NC(=O)c2ccc(Br)o2)n(-c2ccccc2)c2nc3ccccc3nc12	> 200 µM (inactive)
CCN(CC)c1ccc(C=N/C(C#N)=C(\N)C#N)cc1	> 200 µM (inactive)
COc1cc(CC(=O)NCc2ccc3c(c2)OCO3)cc(OC)c1OC	> 200 µM (inactive)
CC(=O)c1ccc(S(=O)(=O)Nc2ccc(-c3ccc4nnc(C)n4n3)cc2)cc1	> 200 µM (inactive)
CN(C)c1cccc2c(C=C(C#N)C#N)ccc(N(C)C)c12	> 200 µM (inactive)
O=C(NCc1ccc(Cl)cc1)c1cc(-c2cccs2)on1	8.13 µM
Cc1ccc(OCCCN2CCOCC2)cc1	> 200 µM (inactive)
COC(=O)c1ccc2c(c1)C(C)(C)C(/C=C/c1ccccc1O)=[N+]2C	> 200 µM (inactive)
O=C(Nc1cc([N+](=O)[O-])ccc1N1CCOCC1)c1cccs1	> 200 µM (inactive)
CCc1nnc(NS(=O)(=O)c2ccc(NC(=S)NC(=O)/C=C/c3ccc(C(C)C)cc3)cc2)s1	19.2 µM
O=C(O)CCCCN1C(=O)/C(=C\c2ccc(OCc3ccccc3)c(OCc3ccccc3)c2)SC1=S	> 200 µM (inactive)
CCCCN(Cc1cc2cc(OC)ccc2[nH]c1=O)S(=O)(=O)c1ccc(C)cc1	> 200 µM (inactive)
COC/C=C/C1=CC2=CC(=O)C(C)(OC(=O)c3ccco3)C(=O)C2=CO1 (stereo unspecified)	inactive
Oc1c(Br)cc(Br)cc1CNc1ccc(F)cc1	> 200 µM (inactive)
Nc1c(C(=O)NCc2ccco2)c2nc3ccccc3nc2n1CCc1ccccc1	> 200 µM (inactive)
CC12CCC(C(=O)NCc3ccc(Cl)cc3)(OC1=O)C2(C)C (stereo unspecified)	> 200 µM (inactive)
O=C1C=C(NCc2ccccc2)c2ccccc2C1=O	> 200 µM (inactive)
Cc1ccccc1NC(=O)CN1C(=O)N/C(=C\c2ccccc2OCc2ccc(C(=O)O)cc2)C1=O	11.5 µM
COc1cc(/C=C(\C#N)c2nc3ccccc3[nH]2)ccc1OC(=O)c1ccco1	> 200 µM (inactive)
c1ccc(C(c2ccccc2)N2CCN(C(c3ccccn3)c3nnnn3C3CCCC3)CC2)cc1 (stereo unspecified)	> 200 µM (inactive)
CN(C)CCOC(=O)CCc1ccccc1	> 200 µM (inactive)
CS(=O)(=O)N1CCN(c2ccc([N+](=O)[O-])c(SCc3ccco3)c2)CC1	> 200 µM (inactive)
O=C(O)CCCNc1cc(N2CCN(C(=O)c3ccco3)CC2)c2noc3c2c1C(=O)c1ccccc1-3	4.21 µM
